In US12338446B2, “Plants having increased tolerance to herbicides” (priority 2015, dated 2025):
Like-named read-outs stand apart in the source and are kept apart here.

Key:
[1] = system: Nicotiana benthamiana leaf discs; assay: PSII yield inhibition (chlorophyll fluorescence, imaging PAM) in transiently transformed tobacco leaf discs; type: cell-based; details: read-out: IC50 of PSII yield inhibition
Text: Transient expression of PPO sequences (e.g. SEQ ID NO: 184) as wildtype or with respective mutations were done as described previously (Voinnet O., et al., 2003, The Plant Journal 33, 949-956). In brief, cloning of GOI and Agrobacterium transformation (strain: GV2260) were done as described in EXAMPLE 5. Young leaves of
Nicotiana benthamiana were infiltrated with transgenic Agrobacterium suspension (OD^600 of 1.0) harboring binary vector constructs containing a GO/gene controlled by a promoter and terminator sequence. 48 h to 72 h after infiltration punches of leave discs (0.75 cm in diameter) were transferred to 6-well plates with medium (half strength Linsmaier-Skoog (Linsmaier and Skoog (1965) Physiol. Plant. 18: 100-127) nutrient solution or water) containing herbicide of interest in different concentrations. […]
Leaf discs, generated as described in EXAMPLE 14, expressing a protein encoded by GOI, were subjected to analysis on improved tolerance to herbicide treatment. For analysis of herbicide damage, chlorophyll fluorescence were identified as indicative marker (Dayan and Zaccaro (2012) Pest. Biochem. Physiol. 102: 189-197). […] PSII yield were measured as per manufacturer instructions. Tolerance factors were calculated based on IC50 values of PSII yield inhibition of transformed versus empty vector-transformed leaf discs. […]

[2] = system: Transgenic Arabidopsis thaliana plants with wildtype or mutated PPO sequences; assay: Tolerance of transgenic Arabidopsis thaliana plants to PPO-inhibiting herbicides in 48-well plates (growth inhibition); type: in vivo; details: seven to ten days after seeding
Method: Transformed cells are selected in selection media supplemented with 0.5-1.5 μM imazethapyr for 3-4 weeks. Transgenic plantlets are regenerated on plant regeneration media and rooted afterwards. Transgenic plantlets are subjected to TaqMan analysis for the presence of the transgene before being transplanted to potting mixture and grown to maturity in greenhouse. Arabidopsis thaliana are transformed with wildtype or mutated PPO sequences by floral dip method as described by McElver and Singh (WO 2008/124495). Transgenic Arabidopsis plants are subjected to TaqMan analysis for analysis of the number of integration loci. Transformation of Otyza sativa (rice) are done by protoplast transformation as described by Peng et al. (U.S. Pat. No. 6,653,529) TO or T1 transgenic plant of soybean, corn, and rice containing mutated PPO sequences are tested for improved tolerance to PPO-derived herbicides in greenhouse studies and mini-plot studies with the following PPO-inhibiting herbicides: saflufenacil, 1,5-dimethyl-6-thioxo-3-(2,2,7-trifluoro-3-oxo-4-(prop-2-ynyl)-3,4-dihydro-2H-benzo[b][1,4]oxazin-6-yl)-1,3,5-triazinane-2,4-dione (CAS 1258836-72-4), flumioxazin, butafenacil, acifluorfen, lactofen, bifenox, sulfentrazone, and photosynthesis inhibitor diuron as negative control.
Transgenic Arabidopsis thaliana plants are assayed for improved tolerance to saflufenacil, 1,5-dimethyl-6-thioxo-3-(2,2,7-trifluoro-3-oxo-4-(prop-2-ynyl)-3,4-dihydro-2H-benzo[b][1,4]oxazin-6-yl)-1,3,5-triazinane-2,4-dione (CAS 1258836-72-4), flumioxazin, butafenacil, acifluorfen, lactofen, bifenox, sulfentrazone, and photosynthesis inhibitor diuron as negative control in 48-well plates. Therefore, T2 seeds are surface sterilized by stirring for 5 min in ethanol+water (70+30 by volume), rinsing one time with ethanol+water (70+30 by volume) and two times with sterile, deionized water. The seeds are resuspended in 0.1% agar dissolved in water (w/v) Four to five seeds per well are plated on solid nutrient medium consisting of half-strength murashige skoog nutrient solution, pH 5.8 (Murashige and Skoog (1962) Physiologia Plantarum 15: 473-497). Compounds are dissolved in dimethylsulfoxid (DMSO) and added to the medium prior solidification (final DMSO concentration 0.1%). Multi well plates are incubated in a growth chamber at 22° C., 75% relative humidity and 110 μmol Phot*m^−2*s^−1 with 14:10 h light: dark photoperiod. Growth inhibition is evaluated seven to ten days after seeding in comparison to wild type plants.

[3] = gene CHLSP_PPO_wt_tpFNR, Chloroflexus sp. (SEQ ID NO: 21)
[4] = gene OPITE_PPO_wt_tpFNR, Opitutus marinus (SEQ ID NO: 9)
[5] = gene RHOMA_PPO_F353V_tpFNR, Rhodotermus marinus (SEQ ID NO: 3 oder 5)
[6] = gene RHOMA_PPO_wt_tpFNR, Rhodotermus marinus (SEQ ID NO: 3 oder 5)
[7] = gene hemG_tpFNR, Escherichia coli (SEQ ID NO: 184)

SMILES	IC50 ([1]; empty vector-transformed leaf discs, treated for 48 h) [µM]	improved tolerance (growth inhibition in comparison to wild type plants) [2, 3]	improved tolerance (growth inhibition in comparison to wild type plants) [2, 4]	improved tolerance (growth inhibition in comparison to wild type plants) [2, 5]	improved tolerance (growth inhibition in comparison to wild type plants) [2, 6]	improved tolerance (growth inhibition in comparison to wild type plants) [2, 7]	IC50 ([1]; 48 h) [µM]	improved tolerance (growth inhibition in comparison to wild type plants) ([2]; gene AC IB A_hemJ_wt_tpFNR, Acinetobacter baylyi (SEQ ID NO: 312))	improved tolerance (growth inhibition in comparison to wild type plants) ([2]; gene CALNI_PPO_wt_tpFNR, Calditerrivibrio nitroreducens (SEQ ID NO: 48))	improved tolerance (growth inhibition in comparison to wild type plants) ([2]; gene CANME_PPO_wt_tpFNR, Candidatus methylomirabilis (SEQ ID NO: 54 or 57))	improved tolerance (growth inhibition in comparison to wild type plants) ([2]; gene HYDTH_PPO_wt_tpFNR, Hydrogenobacter thermophilus (SEQ ID NO: 27))	improved tolerance (growth inhibition in comparison to wild type plants) ([2]; gene LARHO_PPO_wt_tpFNR, Laribacter hongkongensis (SEQ ID NO: 34))
C#CCN1C(=O)C(F)(F)Oc2cc(F)c(-n3c(=O)n(C)c(=S)n(C)c3=O)cc21 [BAS 850H, 1,5-dimethyl-6-thioxo-3-(2,2,7-trifluoro-3-oxo-4-(prop-2-ynyl)-3,4-dihydro-2H-benzo[b][1,4]oxazin-6-yl)-1,3,5-triazinane-2,4-dione]	0.011	1500	9	1	1	4433						
CC(C)N(C)S(=O)(=O)NC(=O)c1cc(-n2c(=O)cc(C(F)(F)F)n(C)c2=O)c(F)cc1Cl [Saflufenacil, saflufenacil]		640	14	1	1	332	0.11	1	1	1	10	1
